Experimental data taken from US20240115682A1, “METHODS OF TREATING CANCER USING HETEROARYL-BIPHENYL AMIDE DERIVATIVES” (CHEMOCENTRYX, INC., priority 2020, published 2024).
Entries after “also recorded” stand apart in the source; their conditions may differ. Like-named read-outs stand apart in the source and are kept apart here.

How the values were obtained:
A375-eGFP cells = assay: In Vitro Immunotherapy Potency Assay (PBMC-mediated tumor cell killing); type: cell-based; conditions: in the presence of pre-stimulated primary human PBMCs
Procedure: In Vitro Immunotherapy Potency Assay: A375-eGFP-Puro Cells (ATCC) were grown in complete medium (DMEM+10% FBS+P/S 1×) containing lug/ml of puromycin. Human peripheral blood mononuclear cells (hPBMCs) were isolated from buffy coat from LRS chambers (leukoreduction systems) from healthy donors by density gradient centrifugation using StemCell SepMate™-50 tubes ([…] Technologies, Vancouver, CA) containing Ficoll-Paque Plus (Sigma Aldrich Inc., St. Louis, MO). […] Cells were washed twice and re-suspended into regular growth media. 3×10^4 A375-eGFP-Puro cells were seeded in 96-well clear bottom black TC treated plates in a final volume of 100 ul (Corning). Test compounds or anti-human PD-L1 antibody (AZ Medi4736 analog, CrownBio, Beijing) were added to the wells at different concentrations. SEB stimulated hPBMCs were added to the wells at a ratio of E:T (Effector cell: Target Cell) of […]. Mixed cells were incubated for 96 to 120 hours at 37° C. in 5% CO2. Medium was carefully aspired and 100 μl of PBS 1× was added to each well. Fluorescence from A375-eGFP cells was detected using FlexStation 3 plate reader.

MC38-hPD-L1 tumor = MC38-hPD-L1 tumor model in C57BL/6 mice; type: in vivo, mouse; conditions: for animals that achieved complete regression: 10 mice in each group, compounds 30 mg/kg orally b.i.d., antibody i.p. twice a week
Procedure: Generation and culture of MC38-hPD-L1 cells: The compounds are only known to cross-react with human PD-L1, therefore a syngeneic tumor model with […] MC-38 colon tumor cells expressing human PD-L1 (MC38-hPD-L1 tumor model) was used. The MC38-hPD-L1 cells were generated by GenOway. Endogenous mouse PD-L1 was first knocked out in MC38 cells using CRISPR technology, then human PDL1 was stably transfected in these mouse PD-L1 Knock-out MC38 cells. The MC38-hPD-L1 cells were cultured under standard conditions for MC38 cells (DMEM with 10% fetal bovine serum and Penicillin/Streptomycin) with G418 for maintaining transgene expression. 2 days prior to inoculation of these cells to mice, cells were trysinized and seeded without antibiotics.
(§1) In Vivo Studies: 8-week-old, female C57BL/6 mice were injected s.c. with 5×10^5 MC38-hPD-L1 cells in the right flank. 9 days after tumor inoculation mice were randomly assigned to treatment groups based on tumor size. Only mice that developed measurable tumors were enrolled in the studies. Anti-PD-L1 (Durvalumab) or isotype control was given i.p. twice a week at 100 ug per mouse per dose for 2 weeks. Compound 2.001 and Compound 2.002 suspended in 1% HPMC was dosed p.o. daily at indicated doses, dosing volume 100 μl per mouse. The vehicle, 1% HPMC, was dosed at the same volume with the same frequency for control animals.
Tumor volume was measured three times per week using a digital caliper and calculated as (width^2*length/2). Mice were sacrificed when tumor volumes reached 2,000 mm^3 in accordance with IACUC guidelines.
Tumor width (W) and length (L) were measured with calipers 3 times a week and the tumor volume was calculated using the formula V=(W (2)×L)/2. When tumors reach 2000 mm^3 mice were sacrificed and tumor excised for further analysis.

[1] = target: human PD-L1 / human PD-1 interaction (Homo sapiens (Human), UniProt Q9NZQ7); assay: PD-1/PD-L1 binding ELISA
human PD-L1 / human PD-1 interaction, sequence (Q9NZQ7 19-239): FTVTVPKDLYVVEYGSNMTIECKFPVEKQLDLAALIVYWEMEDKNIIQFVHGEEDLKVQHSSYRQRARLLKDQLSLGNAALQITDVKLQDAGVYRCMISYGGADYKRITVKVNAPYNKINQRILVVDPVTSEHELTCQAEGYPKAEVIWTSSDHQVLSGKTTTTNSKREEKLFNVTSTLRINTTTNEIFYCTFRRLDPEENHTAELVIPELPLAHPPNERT
Procedure: 96 Well plates were coated with 1 μg/mL of human PD-L1 (obtained from R&D) in PBS overnight at 4° C. The wells were then blocked with 2% BSA in PBS (W/V) with 0.05% TWEEN-20 for 1 hour at 37° C. The plates were washed 3 times with PBS/0.05% TWEEN-20 and the compounds were serial diluted (1:5) in dilution medium and added to the ELISA plates. Human PD-1 and biotin 0.3 μg/mL (ACRO Biosystems) were added and incubated for 1 hour at 37° C. then washed 3 times with PBS/0.05% TWEEN-20. A second block was performed with 2% BSA in PBS (W/V)/0.05% TWEEN-20 for 10 min at 37° C. and the plates were washed 3 times with PBS/0.05% TWEEN-20. Streptavidin-HRP was added for 1 hour at 37° C. then the plates were washed 3 times with PBS/0.05% TWEEN-20. TMB substrate was added and reacted for 20 min at 37° C. A stop solution (2 N aqueous H2SO4) was added. The absorbance was read at 450 nm using a micro-plate spectrophotometer. The results are shown in Table 1: IC50 values are provided as follows: from 1000 to 10,000 nM (+); from 10 up to 1000 nM (++); less than 10 nM (+++).
ELISA: This assay was performed substantially as described in Biological Example 1.

[2] = system: tumor infiltrating CD8+ and CD4+ T cells; assay: Cellular phenotyping of tumor infiltrates in MC38-hPD-L1 tumor model; type: in vivo, mouse; conditions: MC38-hPD-L1 tumors
Procedure: (§2) Cellular phenotyping of tumor infiltrates: Excised tumors were finely chopped with a blade and meshed through 200 um sieve. Cells were then filtered through a […] sieve. Cells were washed and resuspended in FACS buffer (PBS 1× with 10% FBS and 0.1% azide).
(§3) Antibodies for flow cytometry were obtained from BioLegend (San Diego, CA). Flow cytometer panel included CD45 in FITC, PD-L1 in PE, CD8 in APC, CD4 in APC-Cy7. Flow cytometry data were acquired with a FACSCanto II (BD Biosciences, San Jose, CA) cytometer and analyzed using FlowJO v10.2 (FlowJo, Ashland, OR)

PD-1/PD-L1 interaction = assay: PD-1/PD-L1 Blockade Cell-based Assay (NFAT luciferase reporter, CHO PD-L1 + Jurkat PD-1); conditions: Homo sapiens; CHO PD-L1 / Jurkat PD-1 co-culture; read-out: average EC50, NFAT promoter-driven luciferase expression
PD-L1 [3] = target: T1, PD-L1 (Homo sapiens (Human), UniProt Q9NZQ7); assay: PathHunter PD-L1 Dimerization Assay in U2OS cells; type: cell-based
Procedure: Dimerization Assay PD-L1 protein dimerization was assessed in vitro by chemiluminescent detection using PathHunter® Dimerization assay (DiscoverX, Fremont, CA). The Assay was performed following vendor's protocol. 2×10^4 U2OS cells were plated in 96-well white bottom TC treated plates (Costar, San Jose, CA) in a final volume of 100 ul. ChemoCentryx compounds or anti-human PD-L1 antibody (AZ Medi4736 analog, CrownBio, Beijing) were added to experimental cells at different concentrations and incubated for 16 hours at 37° C. in 5% CO2. 110 ul of PathHunter Flash detection reagent (DiscoverX) was added to each well and incubated for 1 hour at room temperature in the dark. Chemiluminescent signal was measured on a FlexStation 3 plate reader (Molecular Devices, San Jose, CA) at a speed of 100 ms/well.
Target sequence in this assay (Q9NZQ7 19-290): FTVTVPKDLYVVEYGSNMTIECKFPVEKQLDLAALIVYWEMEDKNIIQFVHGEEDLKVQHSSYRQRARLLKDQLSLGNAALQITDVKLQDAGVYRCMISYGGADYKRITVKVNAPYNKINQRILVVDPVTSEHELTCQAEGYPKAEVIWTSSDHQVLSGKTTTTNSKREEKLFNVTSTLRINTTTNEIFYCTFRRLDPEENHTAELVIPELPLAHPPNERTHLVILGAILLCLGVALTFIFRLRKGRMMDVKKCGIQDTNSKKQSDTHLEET
Target sequence in this assay (Q9NZQ7 19-290): as above

human T cells = assay: Mixed Lymphocyte Reaction (MLR), IFNgamma release; type: cell-based; conditions: for EC50: Homo sapiens, T-cell, T cells from different donors, read-out: EC50, release of INFgamma from human T cells
Excerpt: PBMCs Isolation: Peripheral blood mononuclear cells (PBMCs) were isolated from buffy coat from LRS chambers (leukoreduction systems) from healthy donors by density gradient centrifugation using StemCell SepMate™-50 tubes ([…] Technologies, Vancouver, CA) containing Ficoll-Paque Plus (Sigma Aldrich Inc., St. Louis, MO).
Generation of monocyte derived dendritic cells: CD14^+ monocytes were isolated from PBMCs by magnetic separation using human CD14^+ MicroBeads (MACS Miltenyi Biotech, Bergisch Gladbach, Germany) and an autoMACS® Pro Separator. Isolated monocytes were plated at a concentration of 1×10^6 cells/ml and differentiated to dendritic cells by adding GM-CSF (100 ng/ml) and IL-4 (50 ng/ml) for 6 days. Fresh media with cytokine supplement were added on day 0 and day 2. Mature dendritic cells were induced on day 6 by addition of IL-6 (2000 IU/ml), IL-1B (400 IU/ml) (Peprotech, Inc. Rocky Hill, NJ), TNFalpha (2000 IU/ml) and PGE2 (2 ug/ml) (Sigma Aldrich, Inc.) and cultured for 24 hours.
Preparation of human effector cells: CD4^+ T-Cells were isolated from PBMCs by magnetic separation using human CD4^+ MicroBeads (MACS Miltenyi Biotech) and an autoMACS® Pro Separator.
Mixed Lymphocyte Reaction (MLR): DC and CD4^+T-Cells from unmatched donors were cultured together in a ratio of 1:10 for 5 days in 96 well-flat bottom plates (Thermo Scientific). Test compounds were added as indicated at starting concentration of 1 μM with 1:4 dilutions with DMSO. PD-L1 antibody (AZ Medi4736 analog) and isotype control (Human IgG1, Kappa Isotype Control) (CrownBio, Beijing) were used as positive and negative control respectively. Supernatants were harvested after 5 days of incubation and detection of human IFNg was performed by ELISA using Human IFN-gamma DuoSet ELISA (R&D Systems, Minneapolis) as per manufacturer's instructions.

PD-L1 [4] = target: T1, PD-L1; assay: PD-L1 occupancy on cells isolated from MC38-hPD-L1 tumors (flow cytometry); type: in vivo, mouse; conditions: cells from treated MC38-hPD-L1 tumors
Procedure: as §2, §3
Target sequence in this assay (Q9NZQ7 19-290): as above
To examine the extent Compound 2.001 occupys PD-L1 on tumor cells, we utilized another PD-L1 detection antibody to stain the cells isolated from these tumors.

PD-L1 [5] = target: T1, PD-L1; assay: PD-L1 Internalization Assay (surface PD-L1 by flow cytometry); type: cell-based; conditions: 37° C.
Procedure: Internalization Assay: MC38-hPD-L1 cells (GenOway S.A., France) and RKO cells (ATCC) growing at 37° C. in 5% CO2 were detached, resuspended in cold FACS buffer (PBS 1× with 10% FBS and 0.1% azide) and added to 96-well assay plates (V-Bottom) (Axygen, Union City, CA) at a concentration of 10×10^4 cells/well. ChemoCentryx compounds or anti-human PD-L1 antibody (AZ Medi4736 analog) were added to the wells at different concentrations and incubated for 2 hours at 37° C. or 4° C. Cells were washed twice with iced cold FACS buffer and stained with recombinant rabbit monoclonal anti human PD-L1 antibody ([28-8] (PE) (ab209962), Abcam) or recombinant rabbit monoclonal IgG Isotype control ([EPR25A] (PE) (ab209478), Abcam) for 30 minutes on ice. Cells were washed twice with FACS buffer before performing FACS analysis. Data were analyzed using FlowJo software.
Target sequence in this assay (Q9NZQ7 19-290): as above

[6] = Plasma compound concentration in MC38-hPD-L1 tumor model; type: in vivo, mouse; conditions: trough after 3 days of dosing, oral
Procedure: as §1

[7] = PD-1/PD-L1 ELISA, class symbols, read-out: ELISA IC50
[8] = average from multiple assays, read-out: average IC50, inhibition of direct interaction of PD-L1 to PD-1

| Molecule | killing of GFP labeled human cancer cell line A375 (A375-eGFP cells) | animals that achieved complete regression (MC38-hPD-L1 tumor) [animals] | IC50 [1, 7] [nM] | IC50 [1, 8] [nM] | tumor infiltrating CD8+ and CD4+ T cells [2] | EC50 (PD-1/PD-L1 interaction) [nM] | PD-L1 dimerization signal (PD-L1 [3]) | release of INFgamma from human T cells (human T cells) | EC50 (human T cells) [nM] | PD-L1 occupancy on tumor cells (PD-L1 [4]) | surface PD-L1 levels (PD-L1 [5]) | mice with complete eradication of the tumors (MC38-hPD-L1 tumor; 30 mg/kg (b.i.d.), orally) | tumor growth (MC38-hPD-L1 tumor; dosed orally, several doses) | plasma compound concentrations [6] | PD-L1 dimerization signal (PD-L1 [3]; listed as anti-PD-L1 antibody) |
| --- | --- | --- | --- | --- | --- | --- | --- | --- | --- | --- | --- | --- | --- | --- | --- |
| COc1nc(-c2cccc(-c3cccc(NC(=O)c4cn(C)c(=O)n(C)c4=O)c3C)c2Cl)ccc1CNC[C@@H]1CCC(=O)N1 [Compound 2.001] | promote killing | 4 | < 10 | 0.3 | increased | 52 | strongly induced the dimerization signal; also recorded: induce PD-L1 dimerization | dose dependently increase | < 100 | near complete PD-L1 occupancy | profoundly reduces surface PD-L1 levels; also recorded: lower the surface PD-L1 levels | – | – | – | – |
| COc1nc(-c2cccc(-c3cccc(NC(=O)c4cn(C)c(=O)n(C)c4=O)c3Cl)c2Cl)ccc1CNC[C@@H]1CCC(=O)N1 [Compound 2.002] | promote killing | – | < 10 | 0.4 | – | 46 | strongly induced the dimerization signal; also recorded: induce PD-L1 dimerization | dose dependently increase | < 100 | – | profoundly reduces surface PD-L1 levels; also recorded: lower the surface PD-L1 levels | Eight of the ten | dose dependently suppresses tumor growth; also recorded: tumor growth suppression in a dose-dependent manner | dose-dependency | – |
| COc1nc(-c2cccc(-c3cccc(NC(=O)c4cn(C)c(=O)n(C)c4=O)c3C)c2Cl)ccc1CN[C@@H]1CCOC[C@@H]1O [Compound 2.003] | – | – | < 10 | – | – | – | – | – | – | – | – | – | – | – | – |
| Durvalumab [reference compound] | – | 6 | – | – | – | – | – | – | – | – | no effect | – | – | – | do not induce such signal |
